{"source": "patent US20170251662A1", "about": "“ALTERNATIVE DEVICE AND METHODS FOR APPLICATION OF 1-METHYLCYCLOPROPENE TO FRUIT” (AGROFRESH INC., priority 2016, published 2017)", "assay_type_in_all_cases": "in vivo", "key": {"Bartlett pears": {"system": "Bartlett pears", "assay": "Liquid 1-MCP drench treatment on pears", "parameters": "key to Firmness, statistical significance between control and treated bins of pears by layers / Ethylene Content, statistical significance between control and treated bins of pears by layers / Skin Color, statistical significance between control and treated bins of pears by layers: Lx: layers that contained fruit that were not statistically significantly different from control; All: fruit tested in all layers was statistically significantly different from control; None: no layers were identified that had statistical significance from control", "description": "Bins of freshly harvested Bartlett pears were sprayed with 0 gal (control), 1.0 gal, 2.0 gal, or 3.0 gal of Harvista AFxRD038 formulation. The AFxRD038 liquid 1-methylcyclopropene (1-MCP) formulation was made of 3 gal of water, 36 g of AFxRD038, 113 ml of HiSupreme Spray Oil, and 5.63 ml of Silwett L-77 surfactant.\nA CO2 backpack sprayer was used to apply the different volumes of 1-MCP treatment within an initial time period of a few days (e.g., about 2-3 days). The formulation was applied to bins containing a total of approximately 900 lbs of pears. Each bin comprised 7-9 layers depending on the size of the pears, with layer 1 being the top layer and layers 7-9 being the bottom layer. A control bin having 9 layers of pears was not sprayed with 1-MCP treatment.\nThe bins of pears were allowed to air dry outside, and were then stored in regular cold air (i.e., about 4° C.) for a second time period of about two days. The fruit was then moved to a controlled atmosphere storage having a temperature of 31° F. for a third time period of about 45 days. Upon removal of the fruit from storage in the bins, the fruit was then placed in a warm room having a temperature of about 68° F. for a fourth time period of about six days.\nOn the sixth day of the fourth time period of warm room exposure, each individual bin of fruit was sampled in a uniform fashion. Uniform sampling was performed by removing about 250 pears from the top of each bin, layer-by-layer. Each layer of about 250 fruit was stored in plastic bins for further analysis during a fifth time period. Day 6 evaluation occurred on the same day the layers were removed from the bin. Four days later (Day 10), another series of fruit layers were analyzed. Four more days later (Day 14), the last set of fruit from the bins were analyzed.\nOn days 6, 10, and 14, a subset of fruit from each layer of each bin was analyzed for firmness, ethylene content, and fruit skin color. Quality measurements were taken on an individual layer of fruit within each treated bin to establish the effectiveness and consistency of the treatments from top to bottom of each fruit bin (see FIGS. 3-5). For example, firmness of the pears was measured by peeling the pears, and measuring the middle pulp with an 8 mm tip."}, "Cantaloupe melons [1]": {"system": "Cantaloupe melons", "assay": "Comparative liquid 1-MCP spray treatment on melons, stored about 15 days", "description": "This experiment was conducted to test the effect of 1-MCP spray treatment on Cantaloupe melons as compared to SmartFresh treatment. Bins containing 9 kilograms each of freshly harvested Cantaloupe melons were sprayed four times using a dual-liquid sprayer comprising the Harvista AFx701 formulation (see FIG. 10). Each spray of the AFx701 liquid 1-methylcyclopropene (1-MCP) formulation comprised 83.5 mg of AFx701 and 608 mg of water. Thus, a total amount of 1.67 mg of 1-MCP active ingredient and 2.43 g of water was applied to each bin of melons, which equates to 0.185 mg of 1-MCP per kg of melons. The 1-MCP treatment formulations were prepared and applied to […] using a sprayer, and compared to apples that had been treated with SmartFresh or no 1-MCP at all (control).\n(§1) The bins of melons were allowed to air dry outside, and were then stored in regular cold air (i.e., about 36° F.) for a second time period of about 15 days. The melons were then moved to a regular atmosphere storage having a temperature of about 70° F. for a third time period of about 2, 4, or 6 more days. Upon removal of the fruit from storage in the bins, the fruit were then analyzed for firmness. Firmness of the melons was measured by cutting the melons in half, and measuring the middle pulp with an 8 mm tip.\nDay 15 evaluation occurred on the same day the fruit were removed from storage in the bin. Two days later (Day 15+2), another series of fruit were analyzed. Two more days later (Day 15+4), an additional set of fruit were removed and analyzed. Finally, the last set of fruit from the bins was analyzed two days later (Day 15+6). Quality measurements were taken on individual melons randomly selected from different treated bins and different positions within each treated bin (e.g., the edge and/or the center of the bin) to establish the effectiveness and consistency of the treatments (see FIG. 11)."}, "Cantaloupe melons [2]": {"system": "Cantaloupe melons", "assay": "Comparative liquid 1-MCP spray treatment on melons, stored about 9 days", "description": "as §1, with “This experiment was conducted to test the effect of 1-MCP spray treatment on Cantaloupe melons as compared to SmartFresh treatment. This experiment was performed exactly as detailed above in Example 1 for Bartlett pears, but with a few noted exceptions described here. The bins” for “The bins”, “of about 9 days. The” for “of about 15 days. The”"}, "Golden Delicious apples": {"system": "Golden Delicious apples", "assay": "Comparative analysis of 1-MCP treatments of apples applied with the wand device", "details": "for Fruit firmness of apples relative to SmartFresh and control apples: 65 days at about 1° C. + 7 days room temperature", "description": "This experiment was conducted to test the effect of different application methods of 1-MCP treatment (i.e., Harvista AFx701) on Golden Delicious apples in bins. Apples were treated with two different formulations of the 1-MCP treatment, including a formulation comprising 1) 20 grams of 1-MCP and 2 liters of water, which was applied in 10 seconds and 2) 60 grams of 1-MCP and 6 liters of water, which was applied in 30 seconds. The 1-MCP treatment formulations were prepared and applied to apples using the wand device, and compared to apples that had been treated with SmartFresh or no 1-MCP at all (control).\nApples were stored for 65 days in cold air at about 1° C. temperature, prior to being stressed for 7 days at room temperature. Replicates of 25 fruit were sampled from each layer of each fruit bin to analyze fruit firmness (in pounds, lbs) and internal ethylene concentration (ppm). Data were analyzed on a whole bin basis using all replicates from each layer."}, "Red Delicious apples": {"system": "Red Delicious apples", "assay": "Liquid 1-MCP drench treatment on apples", "parameters": "key to Ethylene Content, statistical significance between control and treated bins of apples by layers: Lx: layers that contained fruit that were not statistically significantly different from control; All: fruit tested in all layers was statistically significantly different from control; None: no layers were identified that had statistical significance from control", "details": "for Firmness of apples compared with unsprayed control apples: most apples", "description": "This experiment was conducted to test the effect of 1-MCP treatment on Red Delicious apples. This experiment was performed exactly as detailed above in Example 1 for Bartlett pears, but with a few noted exceptions described here. Specifically, Red Delicious apples were treated with a 1-MCP treatment comprising 31 g of AFxRD038. The apples were treated with 0.5 gal, 1.0 gal, and 2.0 gal volumes of the 1-MCP treatment, which were applied to bins of apples comprised in 9-10 layers depending on the size of the apples. A control bin having 10 layers of apples was not sprayed with 1-MCP treatment. The apples were stored for a third time period at room temperature for 33 days. The apples were analyzed for firmness and ethylene content at warm day 7 and 14 of the fifth time period."}, "[3]": {"details": "spray, 9 days cold storage, all days"}, "[4]": {"details": "Treatment 2: 60 grams of 1-MCP and 6 liters of water, 30 seconds, wand device"}}}
{"smiles": "CC1=CC1", "note": "[1-MCP, 1-Methylcyclopropene]", "values": [{"measurement": "Firmness of pears compared with unsprayed control fruit", "setting": "Bartlett pears; 1 gal, 2 gal or 3 gal, layers 1-9, warm days 6, 10 and 14", "value": "significantly better firmness"}, {"measurement": "Firmness, statistical significance between control and treated bins of pears by layers", "setting": "Bartlett pears; WRD 6, 1 Gal", "value": "All"}, {"measurement": "Skin Color, statistical significance between control and treated bins of pears by layers", "setting": "Bartlett pears; WRD 6, 1 Gal", "value": "All"}, {"measurement": "Firmness, statistical significance between control and treated bins of pears by layers", "setting": "Bartlett pears; WRD 6, 2 Gal", "value": "All"}, {"measurement": "Skin Color, statistical significance between control and treated bins of pears by layers", "setting": "Bartlett pears; WRD 6, 2 Gal", "value": "All"}, {"measurement": "Firmness, statistical significance between control and treated bins of pears by layers", "setting": "Bartlett pears; WRD 6, 3 Gal", "value": "All"}, {"measurement": "Skin Color, statistical significance between control and treated bins of pears by layers", "setting": "Bartlett pears; WRD 6, 3 Gal", "value": "All"}, {"measurement": "Ethylene Content, statistical significance between control and treated bins of pears by layers", "setting": "Bartlett pears; WRD 10, 1 Gal", "value": "All"}, {"measurement": "Firmness, statistical significance between control and treated bins of pears by layers", "setting": "Bartlett pears; WRD 10, 1 Gal", "value": "All"}, {"measurement": "Skin Color, statistical significance between control and treated bins of pears by layers", "setting": "Bartlett pears; WRD 10, 1 Gal", "value": "All"}, {"measurement": "Firmness, statistical significance between control and treated bins of pears by layers", "setting": "Bartlett pears; WRD 10, 2 Gal", "value": "All"}, {"measurement": "Skin Color, statistical significance between control and treated bins of pears by layers", "setting": "Bartlett pears; WRD 10, 2 Gal", "value": "All"}, {"measurement": "Firmness, statistical significance between control and treated bins of pears by layers", "setting": "Bartlett pears; WRD 10, 3 Gal", "value": "All"}, {"measurement": "Skin Color, statistical significance between control and treated bins of pears by layers", "setting": "Bartlett pears; WRD 10, 3 Gal", "value": "All"}, {"measurement": "Firmness, statistical significance between control and treated bins of pears by layers", "setting": "Bartlett pears; WRD 14, 1 Gal", "value": "All"}, {"measurement": "Skin Color, statistical significance between control and treated bins of pears by layers", "setting": "Bartlett pears; WRD 14, 1 Gal", "value": "None"}, {"measurement": "Firmness, statistical significance between control and treated bins of pears by layers", "setting": "Bartlett pears; WRD 14, 2 Gal", "value": "All"}, {"measurement": "Skin Color, statistical significance between control and treated bins of pears by layers", "setting": "Bartlett pears; WRD 14, 2 Gal", "value": "None"}, {"measurement": "Firmness, statistical significance between control and treated bins of pears by layers", "setting": "Bartlett pears; WRD 14, 3 Gal", "value": "All"}, {"measurement": "Skin Color, statistical significance between control and treated bins of pears by layers", "setting": "Bartlett pears; WRD 14, 3 Gal", "value": "None"}, {"measurement": "Control and/or inhibition of fruit ripening in pears", "setting": "Bartlett pears; as little as 1 gal of 1-MCP treatment", "value": "effective to control and/or inhibit fruit ripening in pears"}, {"measurement": "Fruit color of pears compared with unsprayed control fruit", "setting": "Bartlett pears; layers 1-9, days 6 and 10", "value": "significantly less fruit color"}, {"measurement": "Ethylene concentration of pears compared with unsprayed control fruit", "setting": "Bartlett pears; layers 1-9, warm days 6, 10 and 14", "value": "significantly lower ethylene concentrations"}, {"measurement": "Fruit skin color of pears compared with control", "setting": "Bartlett pears; warm day 14", "value": "none of the layers showed a significant difference"}, {"measurement": "Control and/or inhibition of fruit ripening in melons", "setting": "Cantaloupe melons [1]; 15 days cold storage", "value": "effective to control and/or inhibit fruit ripening in melons"}, {"measurement": "Firmness of melons compared with control fruit", "setting": "Cantaloupe melons [1]; Day 15, 15+2, 15+4, 15+6 (all days)", "value": "significant differences from the control fruit"}, {"measurement": "Firmness of melons compared with SmartFresh-treated melons", "setting": "Cantaloupe melons [1]; all days", "value": "relatively comparable to melons treated with SmartFresh"}, {"measurement": "Firmness of melons compared with SmartFresh-treated melons", "setting": "Cantaloupe melons [2]; Day 9+4", "value": "even higher"}, {"measurement": "Control and/or inhibition of fruit ripening in melons", "setting": "Cantaloupe melons [2]; spray, 9 days cold storage", "value": "effective to control and/or inhibit fruit ripening in melons"}, {"measurement": "Firmness of melons compared with SmartFresh-treated fruit", "setting": "Cantaloupe melons [2]; [3]", "value": "statistically the same as SmartFresh treated fruit"}, {"measurement": "Firmness of melons compared with control", "setting": "Cantaloupe melons [2]; [3]", "value": "significant differences from the control"}, {"measurement": "Control and/or inhibition of fruit ripening in apples", "setting": "Golden Delicious apples; 1-MCP treatment applied with a wand device", "value": "effective to control and/or inhibit fruit ripening in apples"}, {"measurement": "Fruit firmness of apples relative to SmartFresh and control apples", "setting": "Golden Delicious apples; Treatment 1: 20 grams of 1-MCP and 2 liters of water, 10 seconds, wand device", "value": "highest"}, {"measurement": "Internal ethylene concentration of apples compared with Treatment 1 or control", "setting": "Golden Delicious apples; [4]", "value": "significantly less ethylene concentration"}, {"measurement": "Fruit firmness of apples relative to SmartFresh and control apples", "setting": "Golden Delicious apples; [4]", "value": "highest"}, {"measurement": "Ethylene Content, statistical significance between control and treated bins of apples by layers", "setting": "Red Delicious apples; WRD 7, 0.5 Gal", "value": "All"}, {"measurement": "Ethylene Content, statistical significance between control and treated bins of apples by layers", "setting": "Red Delicious apples; WRD 7, 1 Gal", "value": "All"}, {"measurement": "Ethylene Content, statistical significance between control and treated bins of apples by layers", "setting": "Red Delicious apples; WRD 7, 2 Gal", "value": "All"}, {"measurement": "Ethylene Content, statistical significance between control and treated bins of apples by layers", "setting": "Red Delicious apples; WRD 14, 2 Gal", "value": "All"}, {"measurement": "Control and/or inhibition of fruit ripening in apples", "setting": "Red Delicious apples; as little as 0.5 gal of 1-MCP treatment", "value": "effective to control and/or inhibit fruit ripening in apples"}, {"measurement": "Firmness of apples compared with unsprayed control apples", "setting": "Red Delicious apples; day 14, except layers 2, 5, 8 and 10", "value": "significantly better firmness"}, {"measurement": "Ethylene concentration of apples compared with unsprayed control apples", "setting": "Red Delicious apples; warm day 7, layers 1-10", "value": "significantly lower ethylene concentrations"}, {"measurement": "Firmness of apples compared with unsprayed control apples", "setting": "Red Delicious apples; warm day 7, except layers 5, 8 and 9", "value": "significantly better firmness"}]}
